{"source": "the NIST ThermoML archive (doi:10.1016/j.fluid.2014.12.037)", "key": {"[1]": {"settings": "Crystal; DTA"}, "[2]": {"experiment": "Molar enthalpy of transition or fusion", "settings": "Crystal; DSC"}}, "note": "Numbers after ± are expanded uncertainties.", "data": [{"molecule": "N=C(N)N.O=[N+]([O-])O", "note": "[guanidine nitrate]", "values": [{"measurement": "Normal melting temperature", "setting": "[1]", "value": "214.02 ± 2", "unit": "°C"}, {"measurement": "Molar enthalpy of transition or fusion", "setting": "[2]", "value": "6.04 ± 0.146", "unit": "kcal/mol"}]}]}
